PubChem BioAssay (NCI)
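Five concentrations, 48 hours, 96-well plates. Here, GI50 denotes the concentration required for 50% inhibition of growth. TGI: total growth inhibition.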

Columns and labels:
Assay in all cases: NCI-60 cell line screen, 48 h
[1] = tested on: ACHN renal
[2] = tested on: SK-MEL-2 melanoma
[3] = tested on: RXF 393 renal
[4] = tested on: OVCAR-8 ovarian
[5] = tested on: K-562 leukemia
[6] = tested on: MALME-3M melanoma
[7] = tested on: NCI-H522 lung
[8] = tested on: UACC-257 melanoma
[9] = tested on: SNB-19 CNS
[10] = tested on: DU-145 prostate
[11] = tested on: CCRF-CEM leukemia
[12] = tested on: HCT-15 colon
[13] = tested on: SR leukemia
[14] = tested on: SF-539 CNS
[15] = tested on: HCT-116 colon
[16] = tested on: M14 melanoma
[17] = tested on: SK-MEL-28 melanoma
[18] = tested on: CAKI-1 renal
[19] = tested on: PC-3 prostate
[20] = tested on: HS 578T breast
[21] = tested on: A498 renal
[22] = tested on: HOP-92 NSCLC
[23] = tested on: OVCAR-3 ovarian
[24] = tested on: MOLT-4 leukemia
[25] = tested on: A549 NSCLC
[26] = tested on: MDA-MB-435
[27] = tested on: SNB-75 CNS
[28] = tested on: T-47D breast
[29] = tested on: UACC-62 melanoma
[30] = tested on: MCF7 breast
[31] = tested on: HL-60(TB) leukemia
[32] = tested on: SF-268 CNS
[33] = tested on: TK-10 renal
[34] = tested on: SN12C renal
[35] = tested on: NCI/ADR-RES ovarian
[36] = tested on: MDA-MB-231 breast
[37] = tested on: HT29 colon
[38] = tested on: NCI-H460 lung
[39] = tested on: RPMI-8226 leukemia
[40] = tested on: KM12 colon

COc1cc(/C=C2\CCCC3=C2N=C2SC=NN2C3c2cc(OC)c(OC)c(OC)c2)cc(OC)c1OC (configuration not stated)
GI50 [1]: 1.88 µM
TGI [1]: 3.74 µM
GI50 [2]: 3.46 µM
TGI [2]: > 100 µM
GI50 [3]: 2.2 µM
TGI [3]: 4.74 µM
GI50 [4]: 3.23 µM
TGI [4]: 29.8 µM
GI50 [5]: 3.08 µM
TGI [5]: > 100 µM
GI50 [6]: 2.99 µM
TGI [6]: 7.09 µM
GI50 [7]: 2.72 µM
TGI [7]: 8.51 µM
GI50 [8]: 2.64 µM
TGI [8]: 26.1 µM
GI50 [9]: 4.44 µM
TGI [9]: > 100 µM
GI50 [10]: 3.97 µM
TGI [10]: > 100 µM
GI50 [11]: 3.17 µM
TGI [11]: > 100 µM
GI50 [12]: 2.25 µM
TGI [12]: 5.91 µM
GI50 [13]: 2.55 µM
TGI [13]: 9.47 µM
GI50 [14]: 2.9 µM
TGI [14]: > 100 µM
GI50 [15]: 1.76 µM
TGI [15]: 3.41 µM
GI50 [16]: 2.4 µM
TGI [16]: 7.1 µM
GI50 [17]: 2.07 µM
TGI [17]: 5.26 µM
GI50 [18]: 3.43 µM
TGI [18]: > 100 µM
GI50 [19]: 3.1 µM
TGI [19]: > 100 µM
GI50 [20]: 4.85 µM
TGI [20]: > 100 µM
GI50 [21]: 1.48 µM
TGI [21]: 3.89 µM
GI50 [22]: 2.98 µM
TGI [22]: > 100 µM
GI50 [23]: 3.02 µM
TGI [23]: 9.32 µM
GI50 [24]: 3.06 µM
GI50 [25]: 2.95 µM
TGI [25]: > 100 µM
GI50 [26]: 2.04 µM
TGI [26]: 5.17 µM
GI50 [27]: 7.52 µM
TGI [27]: > 100 µM
GI50 [28]: 3.9 µM
TGI [28]: > 100 µM
GI50 [29]: 1.68 µM
TGI [29]: 3.66 µM
GI50 [30]: 3.82 µM
TGI [30]: > 100 µM
GI50 [31]: 2.93 µM
TGI [31]: 9.49 µM
GI50 [32]: 3.48 µM
TGI [32]: > 100 µM
GI50 [33]: 4.19 µM
TGI [33]: 47.6 µM
GI50 [34]: 2.39 µM
TGI [34]: 7.11 µM
GI50 [35]: 3.45 µM
TGI [35]: > 100 µM
GI50 [36]: 4.95 µM
TGI [36]: > 100 µM
GI50 [37]: 3.07 µM
TGI [37]: 7.41 µM

CO[C@]12C=C/C(=C(/C(=O)OCc3cccnc3)C(=O)CCCCCCCC[C@]3(OC)C=C/C(=C(/C(=O)OCc4cccnc4)C(=O)CCCCCCCC1)O3)O2
GI50 [38]: 0.321 µM
TGI [38]: 1.02 µM
GI50 [5]: 0.337 µM
TGI [5]: 1.3 µM
GI50 [7]: 0.225 µM
TGI [7]: 0.554 µM
GI50 [10]: 0.375 µM
TGI [10]: 1.27 µM
GI50 [21]: 0.432 µM
TGI [21]: 1.72 µM
GI50 [22]: 0.262 µM
TGI [22]: 0.889 µM
GI50 [23]: 0.312 µM
TGI [23]: 0.917 µM
GI50 [27]: 0.247 µM
TGI [27]: 1.2 µM
GI50 [39]: 0.291 µM
TGI [39]: 0.927 µM
GI50 [31]: 0.337 µM
TGI [31]: 1.02 µM
GI50 [33]: 0.583 µM
TGI [33]: 1.96 µM
GI50 [40]: 0.207 µM
TGI [40]: 0.429 µM
